Reference: paper PMC5218480 (PLoS ONE, 2017)

Test system: MV-4-11 cells
Assay: Gene expression microarray analysis (Affymetrix PrimeView) and GSEA
Assay type: cell-based, human
Parameters: RFU PODN (11730768_x_at) / Fold change /veh PODN (11730768_x_at) / RFU LINC00158 (11744669_a_at) / Fold change /veh LINC00158 (11744669_a_at) / RFU DUSP10 (11751237_a_at) / Fold change /veh DUSP10 (11751237_a_at) / RFU ID3 (11757404_x_at) / Fold change /veh ID3 (11757404_x_at) / RFU PLEKHG5 (11737974_s_at) / Fold change /veh PLEKHG5 (11737974_s_at) / RFU LRRC4B (11730491_at) / Fold change /veh LRRC4B (11730491_at) / RFU GIMAP4 (11747438_a_at) / Fold change /veh GIMAP4 (11747438_a_at) / RFU KRT8 (11758183_x_at) / Fold change /veh KRT8 (11758183_x_at) / RFU CNN1 (11734310_a_at) / Fold change /veh CNN1 (11734310_a_at) / RFU VPS37D (11726825_at) / Fold change /veh VPS37D (11726825_at) / RFU C10orf10 (11716522_x_at) / Fold change /veh C10orf10 (11716522_x_at) / RFU KIR2DL2 /// KIR2DL4 /// KIR2DL5A /// KIR2DL5B /// KIR2DS1 /// KIR2DS2 /// KIR2DS3 /// KIR2DS4 /// KIR3DL3 /// KIR3DL3 /// KIR3DS1 (11738374_at) / Fold change /veh KIR2DL2 /// KIR2DL4 /// KIR2DL5A /// KIR2DL5B /// KIR2DS1 /// KIR2DS2 /// KIR2DS3 /// KIR2DS4 /// KIR3DL3 /// KIR3DL3 /// KIR3DS1 (11738374_at) / RFU C1QL1 (11718748_at) / Fold change /veh C1QL1 (11718748_at) / RFU TMPRSS4 (11747572_a_at) / Fold change /veh TMPRSS4 (11747572_a_at) / RFU HAMP (11756126_x_at) / Fold change /veh HAMP (11756126_x_at) / RFU RNFT2 (11725882_a_at) / Fold change /veh RNFT2 (11725882_a_at) / RFU NR4A2 (11747474_a_at) / Fold change /veh NR4A2 (11747474_a_at) / RFU ABCC12 (11746883_a_at) / Fold change /veh ABCC12 (11746883_a_at) / RFU TMEM136 (11760407_x_at) / Fold change /veh TMEM136 (11760407_x_at) / RFU CLDN22 /// WWC2 (11732394_at) / Fold change /veh CLDN22 /// WWC2 (11732394_at) / RFU HLA-DPB1 (11760878_x_at) / Fold change /veh HLA-DPB1 (11760878_x_at) / RFU SPINT1 (11716480_a_at) / Fold change /veh SPINT1 (11716480_a_at) / RFU GAP43 (11754022_s_at) / Fold change /veh GAP43 (11754022_s_at) / RFU A4GNT (11735810_at) / Fold change /veh A4GNT (11735810_at) / RFU PRB3 (11715151_x_at) / Fold change /veh PRB3 (11715151_x_at) / RFU TUBB4B (11761932_at) / Fold change /veh TUBB4B (11761932_at) / RFU CAPN14 (11732068_a_at) / Fold change /veh CAPN14 (11732068_a_at) / RFU TMCC2 (11721928_a_at) / Fold change /veh TMCC2 (11721928_a_at) / RFU IRGQ (11745062_a_at) / Fold change /veh IRGQ (11745062_a_at) / RFU FAM174B (11720279_a_at) / Fold change /veh FAM174B (11720279_a_at) / RFU TMPRSS4 (11748680_a_at) / Fold change /veh TMPRSS4 (11748680_a_at) / RFU FAM212B (11763350_a_at) / Fold change /veh FAM212B (11763350_a_at) / RFU PLEKHG5 (11743358_a_at) / Fold change /veh PLEKHG5 (11743358_a_at) / RFU ZSCAN30 (11745921_a_at) / Fold change /veh ZSCAN30 (11745921_a_at) / RFU CMKLR1 (11741424_a_at) / Fold change /veh CMKLR1 (11741424_a_at) / RFU LOC101060620 /// MAPK8IP1 (11723275_at) / Fold change /veh LOC101060620 /// MAPK8IP1 (11723275_at) / RFU SPTSSB (11747773_x_at) / Fold change /veh SPTSSB (11747773_x_at) / RFU PRSS12 (11739890_at) / Fold change /veh PRSS12 (11739890_at) / RFU BIN1 (11741810_x_at) / Fold change /veh BIN1 (11741810_x_at) / RFU WNT11 (11732464_a_at) / Fold change /veh WNT11 (11732464_a_at) / RFU C10orf10 (11716521_a_at) / Fold change /veh C10orf10 (11716521_a_at) / RFU C5orf56 (11738089_at) / Fold change /veh C5orf56 (11738089_at) / RFU CYB561 (11721691_x_at) / Fold change /veh CYB561 (11721691_x_at) / RFU ANKRD19P (11752326_a_at) / Fold change /veh ANKRD19P (11752326_a_at) / RFU OR2T12 /// OR2T33 /// OR2T8 (11738714_s_at) / Fold change /veh OR2T12 /// OR2T33 /// OR2T8 (11738714_s_at) / RFU VCAN (11748164_a_at) / Fold change /veh VCAN (11748164_a_at) / RFU JSRP1 (11732532_at) / Fold change /veh JSRP1 (11732532_at) / RFU KRTAP10-11 (11738290_x_at) / Fold change /veh KRTAP10-11 (11738290_x_at) / RFU MYO3A (11730013_a_at) / Fold change /veh MYO3A (11730013_a_at) / RFU EBF3 (11725865_a_at) / Fold change /veh EBF3 (11725865_a_at) / RFU CAMK2N1 (11719241_x_at) / Fold change /veh CAMK2N1 (11719241_x_at) / RFU C5orf56 (11738088_a_at) / Fold change /veh C5orf56 (11738088_a_at) / RFU OLFML3 (11715873_a_at) / Fold change /veh OLFML3 (11715873_a_at) / RFU LOC100653217 /// NTM (11731650_a_at) / Fold change /veh LOC100653217 /// NTM (11731650_a_at) / RFU MAPK11 (11762145_a_at) / Fold change /veh MAPK11 (11762145_a_at) / RFU FIZ1 (11724087_x_at) / Fold change /veh FIZ1 (11724087_x_at) / RFU OASL (11726364_x_at) / Fold change /veh OASL (11726364_x_at) / RFU SOX15 (11748057_x_at) / Fold change /veh SOX15 (11748057_x_at) / RFU CD79A (11719716_a_at) / Fold change /veh CD79A (11719716_a_at) / RFU HIST1H1D (11736915_at) / Fold change /veh HIST1H1D (11736915_at) / RFU CASKIN2 (11723855_a_at) / Fold change /veh CASKIN2 (11723855_a_at) / RFU LOC730098 (11760151_x_at) / Fold change /veh LOC730098 (11760151_x_at) / RFU OR4N2 (11742367_at) / Fold change /veh OR4N2 (11742367_at) / RFU PRRT2 (11749266_a_at) / Fold change /veh PRRT2 (11749266_a_at) / RFU SNX32 (11753110_a_at) / Fold change /veh SNX32 (11753110_a_at) / RFU CDHR5 (11726645_a_at) / Fold change /veh CDHR5 (11726645_a_at) / RFU RCAN1 (11760418_a_at) / Fold change /veh RCAN1 (11760418_a_at) / RFU FAM167A (11723789_a_at) / Fold change /veh FAM167A (11723789_a_at) / RFU FAM26E (11764081_at) / Fold change /veh FAM26E (11764081_at) / RFU ISYNA1 (11749810_s_at) / Fold change /veh ISYNA1 (11749810_s_at) / RFU ACY1 (11761880_at) / Fold change /veh ACY1 (11761880_at) / RFU 11764098_at / Fold change /veh 11764098_at / RFU SAMD14 (11745864_x_at) / Fold change /veh SAMD14 (11745864_x_at) / RFU NPB (11741838_a_at) / Fold change /veh NPB (11741838_a_at) / RFU TMPRSS6 (11731388_a_at) / Fold change /veh TMPRSS6 (11731388_a_at) / RFU KRTAP10-2 (11738614_at) / Fold change /veh KRTAP10-2 (11738614_at) / RFU ARHGAP8 /// PRR5-ARHGAP8 (11727945_x_at) / Fold change /veh ARHGAP8 /// PRR5-ARHGAP8 (11727945_x_at) / RFU KRTAP5-7 /// NADSYN1 (11734609_at) / Fold change /veh KRTAP5-7 /// NADSYN1 (11734609_at) / RFU RASL12 (11751679_a_at) / Fold change /veh RASL12 (11751679_a_at) / RFU CDKN2B (11736163_a_at) / Fold change /veh CDKN2B (11736163_a_at) / RFU PRF1 (11729649_at) / Fold change /veh PRF1 (11729649_at) / RFU, ZNF638 /// ZNF638-IT1 / Fold change vs veh, ZNF638 /// ZNF638-IT1 / RFU, PANK3 / Fold change vs veh, PANK3 / RFU, SH3YL1 / Fold change vs veh, SH3YL1 / RFU, ZEB2 / Fold change vs veh, ZEB2 / RFU, NRIP1 / Fold change vs veh, NRIP1 / RFU, PTTG1IP / Fold change vs veh, PTTG1IP / RFU, CAPN2 / Fold change vs veh, CAPN2 / RFU, MED14 / Fold change vs veh, MED14 / RFU, SNORA58 / Fold change vs veh, SNORA58 / RFU, C1orf63 / Fold change vs veh, C1orf63 / RFU, LRRFIP1 / Fold change vs veh, LRRFIP1 / RFU, NDUFAF7 / Fold change vs veh, NDUFAF7 / RFU, SLC12A2 / Fold change vs veh, SLC12A2 / RFU, IBTK / Fold change vs veh, IBTK / RFU, ESF1 / Fold change vs veh, ESF1 / Fold change vs veh, TMEM50B / RFU, TAOK1 / Fold change vs veh, TAOK1 / RFU, ACBD3 / Fold change vs veh, ACBD3 / RFU, TMA16 / Fold change vs veh, TMA16 / RFU, RWDD3 / Fold change vs veh, RWDD3 / RFU, BCAT1 / Fold change vs veh, BCAT1 / RFU, EDEM3 / Fold change vs veh, EDEM3 / RFU, TMEM33 / Fold change vs veh, TMEM33 / RFU, WDR75 / Fold change vs veh, WDR75 / RFU, AHCTF1 / Fold change vs veh, AHCTF1 / RFU, TFRC / Fold change vs veh, TFRC / RFU, ZDHHC17 / Fold change vs veh, ZDHHC17 / RFU, NOM1 / Fold change vs veh, NOM1 / RFU, ARL8B / Fold change vs veh, ARL8B / RFU, ZBTB11 / Fold change vs veh, ZBTB11 / RFU, TAMM41 / Fold change vs veh, TAMM41 / RFU, KIAA1704 /// LOC100996395 / Fold change vs veh, KIAA1704 /// LOC100996395 / RFU, ING1 / Fold change vs veh, ING1 / RFU, TRMT61B / Fold change vs veh, TRMT61B / RFU, FUBP3 / Fold change vs veh, FUBP3 / RFU, TP53 / Fold change vs veh, TP53 / RFU, TNKS2 / Fold change vs veh, TNKS2 / RFU, ZFP14 / Fold change vs veh, ZFP14 / RFU, ACTR2 / Fold change vs veh, ACTR2 / RFU, PPP3R1 / Fold change vs veh, PPP3R1 / RFU, PIK3R1 / Fold change vs veh, PIK3R1 / RFU, HNRNPA1 / Fold change vs veh, HNRNPA1 / RFU, RNF170 / Fold change vs veh, RNF170 / RFU, ZNF28 / Fold change vs veh, ZNF28 / RFU, RNGTT / Fold change vs veh, RNGTT / RFU, OGT / Fold change vs veh, OGT / RFU, BRD1 / Fold change vs veh, BRD1 / RFU, MARS / Fold change vs veh, MARS / RFU, ZNF655 / Fold change vs veh, ZNF655 / RFU, FAHD1 / Fold change vs veh, FAHD1 / RFU, BDP1 / Fold change vs veh, BDP1 / RFU, LRRCC1 / Fold change vs veh, LRRCC1 / RFU, ARID1A / Fold change vs veh, ARID1A / RFU, ZNF146 / Fold change vs veh, ZNF146 / RFU, ZNF330 / Fold change vs veh, ZNF330 / RFU, GPN3 / Fold change vs veh, GPN3 / RFU, C9orf123 / Fold change vs veh, C9orf123 / RFU, N4BP2L2 / Fold change vs veh, N4BP2L2 / RFU, ARFIP1 / Fold change vs veh, ARFIP1 / RFU, FAM179B / Fold change vs veh, FAM179B / RFU, BCL10 / Fold change vs veh, BCL10 / RFU, UHRF1BP1L / Fold change vs veh, UHRF1BP1L / RFU, BET1 / Fold change vs veh, BET1 / RFU, CNOT2 / Fold change vs veh, CNOT2 / RFU, ZNF268 / Fold change vs veh, ZNF268 / Fold change vs veh, ZNF507 / RFU, DGCR2 / Fold change vs veh, DGCR2 / RFU, WDSUB1 / Fold change vs veh, WDSUB1 / Fold change vs veh, HSP90B1 /// MIR3652 / RFU, ADSS / Fold change vs veh, ADSS / RFU, GK / Fold change vs veh, GK / RFU, ZNF148 / Fold change vs veh, ZNF148 / RFU, TAF9 / Fold change vs veh, TAF9 / RFU, SLC1A5 / Fold change vs veh, SLC1A5 / RFU, SLMO2 / Fold change vs veh, SLMO2 / RFU, ABCC4 / Fold change vs veh, ABCC4 / RFU, LOC101060439 /// RAP1B / Fold change vs veh, LOC101060439 /// RAP1B / RFU, RFX7 / Fold change vs veh, RFX7 / RFU, GTPBP10 / Fold change vs veh, GTPBP10 / RFU, CNEP1R1 / Fold change vs veh, CNEP1R1 / RFU, BIVM-ERCC5 /// ERCC5 / Fold change vs veh, BIVM-ERCC5 /// ERCC5 / RFU, ILF3 / Fold change vs veh, ILF3 / RFU 11762660_at / Fold change /veh 11762660_at / RFU VCAN (11757783_s_at) / Fold change /veh VCAN (11757783_s_at) / RFU DDX43 (11728927_at) / Fold change /veh DDX43 (11728927_at) / RFU KRT8 (11758188_x_at) / Fold change /veh KRT8 (11758188_x_at) / RFU NKD1 (11759106_at) / Fold change /veh NKD1 (11759106_at) / RFU SRD5A1 (11742802_a_at) / Fold change /veh SRD5A1 (11742802_a_at) / RFU TPSAB1 /// TPSB2 (11721975_s_at) / Fold change /veh TPSAB1 /// TPSB2 (11721975_s_at) / RFU GSTM3 (11746129_a_at) / Fold change /veh GSTM3 (11746129_a_at) / RFU IL23R (11737362_x_at) / Fold change /veh IL23R (11737362_x_at) / RFU TMEM51 (11727254_a_at) / Fold change /veh TMEM51 (11727254_a_at) / RFU PIWIL2 (11732686_x_at) / Fold change /veh PIWIL2 (11732686_x_at) / RFU ORM1 (11744905_x_at) / Fold change /veh ORM1 (11744905_x_at) / RFU CCDC152 (11743942_at) / Fold change /veh CCDC152 (11743942_at) / RFU ECM1 (11717891_a_at) / Fold change /veh ECM1 (11717891_a_at) / RFU IL23R (11748794_a_at) / Fold change /veh IL23R (11748794_a_at) / RFU TNFAIP8L3 (11732012_x_at) / Fold change /veh TNFAIP8L3 (11732012_x_at) / RFU MBOAT4 (11741988_at) / Fold change /veh MBOAT4 (11741988_at) / RFU 11764193_at / Fold change /veh 11764193_at / RFU TMEM53 (11763286_at) / Fold change /veh TMEM53 (11763286_at) / RFU MAGEB2 (11727129_at) / Fold change /veh MAGEB2 (11727129_at) / RFU TMEM200A (11744735_a_at) / Fold change /veh TMEM200A (11744735_a_at) / RFU CCDC152 (11751479_a_at) / Fold change /veh CCDC152 (11751479_a_at) / RFU FAM211A (11726209_a_at) / Fold change /veh FAM211A (11726209_a_at) / RFU RGS16 (11746705_a_at) / Fold change /veh RGS16 (11746705_a_at) / RFU VCAN (11755009_s_at) / Fold change /veh VCAN (11755009_s_at) / RFU RHOB (11743442_s_at) / Fold change /veh RHOB (11743442_s_at) / RFU RGS16 (11720943_a_at) / Fold change /veh RGS16 (11720943_a_at) / RFU RGS16 (11720944_at) / Fold change /veh RGS16 (11720944_at) / RFU, VPS4B / Fold change vs veh, VPS4B / RFU, CREB1 / Fold change vs veh, CREB1 / RFU, DNAJC13 / Fold change vs veh, DNAJC13 / RFU, GNAQ / Fold change vs veh, GNAQ / RFU, CDK5R1 / Fold change vs veh, CDK5R1 / RFU, ZRANB3 / Fold change vs veh, ZRANB3 / RFU, CUL4A / Fold change vs veh, CUL4A / RFU, CCNY / Fold change vs veh, CCNY / RFU, UFL1 / Fold change vs veh, UFL1 / RFU, COG3 / Fold change vs veh, COG3 / RFU, DIAPH2 / Fold change vs veh, DIAPH2 / RFU, SKA2 / Fold change vs veh, SKA2 / RFU, AFF3 / Fold change vs veh, AFF3 / RFU, LMF1 / Fold change vs veh, LMF1 / RFU, IPO11 / Fold change vs veh, IPO11 / RFU, DFFB / Fold change vs veh, DFFB / RFU, FOXP1 / Fold change vs veh, FOXP1 / RFU, CARD8 / Fold change vs veh, CARD8 / RFU, STRN3 / Fold change vs veh, STRN3 / RFU, ADK / Fold change vs veh, ADK / RFU, RASSF2 / Fold change vs veh, RASSF2 / RFU, WIPF1 / Fold change vs veh, WIPF1 / RFU, LARP1B / Fold change vs veh, LARP1B / RFU, RASA1 / Fold change vs veh, RASA1 / RFU, RB1 / Fold change vs veh, RB1 / RFU, PPFIA1 / Fold change vs veh, PPFIA1 / RFU, MAT2A / Fold change vs veh, MAT2A / RFU, CCT5 / Fold change vs veh, CCT5 / RFU, WDR92 / Fold change vs veh, WDR92 / RFU, CUX1 / Fold change vs veh, CUX1 / RFU, TTC7A / Fold change vs veh, TTC7A / RFU, TMEM135 / Fold change vs veh, TMEM135 / RFU, DEPTOR / Fold change vs veh, DEPTOR / RFU, CPM / Fold change vs veh, CPM / RFU, DNAJB6 / Fold change vs veh, DNAJB6 / RFU, CACNA2D3 / Fold change vs veh, CACNA2D3 / RFU, DTX4 / Fold change vs veh, DTX4 / RFU, TFCP2 / Fold change vs veh, TFCP2 / RFU, GMCL1 /// GMCL1P1 / Fold change vs veh, GMCL1 /// GMCL1P1 / RFU, AEBP2 / Fold change vs veh, AEBP2 / RFU, SNHG1 /// SNORD22 /// SNORD25 /// SNORD26 /// SNORD27 /// SNORD28 /// SNORD29 /// SNORD31 / Fold change vs veh, SNHG1 /// SNORD22 /// SNORD25 /// SNORD26 /// SNORD27 /// SNORD28 /// SNORD29 /// SNORD31 / Fold change (Aza/veh), C12orf56 (ProbeSet 11735607_a_at) / Fold change (ACY-1035/veh), C12orf56 (ProbeSet 11735607_a_at) / Fold change (Aza/veh), FGFR1OP (ProbeSet 11751329_s_at) / Fold change (ACY-1035/veh), FGFR1OP (ProbeSet 11751329_s_at) / Fold change (Aza/veh), VPS36 (ProbeSet 11739960_a_at) / Fold change (ACY-1035/veh), VPS36 (ProbeSet 11739960_a_at) / RFU SYPL1 (11715823_x_at) / Fold change /veh SYPL1 (11715823_x_at) / RFU IGFBP7 (11715501_s_at) / Fold change /veh IGFBP7 (11715501_s_at) / RFU REEP3 (11722064_at) / Fold change /veh REEP3 (11722064_at) / RFU IGLL1 (11728026_x_at) / Fold change /veh IGLL1 (11728026_x_at): dose or concentration left out as unconfirmed
Conditions: ProbeSet 11718569_a_at; LIST D

Nc1ncn([C@@H]2O[C@H](CO)[C@@H](O)[C@H]2O)c(=O)n1 [azacitidine]
Fold change vs veh, WIPF1: 0.72
